For experiment [1], the target named is T1, Neuropeptide Y receptor type 1 (Homo sapiens, UniProt P25929).
T1 sequence (P25929 whole entry): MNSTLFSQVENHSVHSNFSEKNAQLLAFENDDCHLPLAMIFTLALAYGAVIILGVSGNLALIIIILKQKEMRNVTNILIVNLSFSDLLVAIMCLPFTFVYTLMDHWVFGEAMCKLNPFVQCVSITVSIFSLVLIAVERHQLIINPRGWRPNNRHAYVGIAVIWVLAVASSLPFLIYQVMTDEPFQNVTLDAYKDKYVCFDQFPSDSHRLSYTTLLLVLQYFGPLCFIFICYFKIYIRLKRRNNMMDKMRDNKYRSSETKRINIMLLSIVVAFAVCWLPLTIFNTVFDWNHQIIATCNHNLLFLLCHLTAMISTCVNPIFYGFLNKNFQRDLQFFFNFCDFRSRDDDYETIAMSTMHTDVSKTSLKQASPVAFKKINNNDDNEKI
The conditions noted are these: read-out: AC50.

The next experiment concerns the target Mu-type opioid receptor (Homo sapiens, UniProt P35372).
The target of experiment [2] is T2, 5-hydroxytryptamine receptor 2A (Homo sapiens, UniProt P28223). In kind it is functional, cell-based.
T2 sequence (P28223 whole entry): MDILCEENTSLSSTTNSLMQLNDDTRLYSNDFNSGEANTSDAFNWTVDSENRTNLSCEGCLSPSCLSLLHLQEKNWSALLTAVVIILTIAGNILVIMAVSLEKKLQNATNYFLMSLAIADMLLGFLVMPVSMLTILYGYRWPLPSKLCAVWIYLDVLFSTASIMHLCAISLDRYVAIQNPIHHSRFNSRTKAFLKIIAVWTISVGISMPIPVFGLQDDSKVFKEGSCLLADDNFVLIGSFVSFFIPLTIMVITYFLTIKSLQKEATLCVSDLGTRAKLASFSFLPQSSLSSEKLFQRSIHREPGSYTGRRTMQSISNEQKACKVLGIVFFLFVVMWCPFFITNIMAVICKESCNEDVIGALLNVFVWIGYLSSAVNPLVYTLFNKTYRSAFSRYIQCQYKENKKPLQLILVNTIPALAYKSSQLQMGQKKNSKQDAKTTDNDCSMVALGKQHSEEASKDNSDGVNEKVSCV
Experiment [3] deals with 5-hydroxytryptamine receptor 2B (Homo sapiens, UniProt P41595). In kind it is functional, cell-based.
Sequence of 5-hydroxytryptamine receptor 2B (P41595 whole entry): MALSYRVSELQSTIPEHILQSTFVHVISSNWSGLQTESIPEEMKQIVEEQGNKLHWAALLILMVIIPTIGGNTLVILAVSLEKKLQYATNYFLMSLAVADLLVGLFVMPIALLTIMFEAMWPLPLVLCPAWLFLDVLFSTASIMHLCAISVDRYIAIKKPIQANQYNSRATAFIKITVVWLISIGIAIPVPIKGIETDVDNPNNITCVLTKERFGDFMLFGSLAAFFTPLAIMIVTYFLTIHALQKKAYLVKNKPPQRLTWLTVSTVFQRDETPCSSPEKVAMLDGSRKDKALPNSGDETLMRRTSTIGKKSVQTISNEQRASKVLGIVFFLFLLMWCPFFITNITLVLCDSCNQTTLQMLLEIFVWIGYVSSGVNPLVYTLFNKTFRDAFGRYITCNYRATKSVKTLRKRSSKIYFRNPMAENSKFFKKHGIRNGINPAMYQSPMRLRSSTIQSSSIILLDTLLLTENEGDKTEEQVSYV
Experiment [4] concerns the target T3, Cannabinoid receptor 1 (Homo sapiens, UniProt P21554).
For experiment [5], the target named is T4, Alpha-1A adrenergic receptor (Homo sapiens, UniProt P35348).
T4 sequence (P35348 whole entry): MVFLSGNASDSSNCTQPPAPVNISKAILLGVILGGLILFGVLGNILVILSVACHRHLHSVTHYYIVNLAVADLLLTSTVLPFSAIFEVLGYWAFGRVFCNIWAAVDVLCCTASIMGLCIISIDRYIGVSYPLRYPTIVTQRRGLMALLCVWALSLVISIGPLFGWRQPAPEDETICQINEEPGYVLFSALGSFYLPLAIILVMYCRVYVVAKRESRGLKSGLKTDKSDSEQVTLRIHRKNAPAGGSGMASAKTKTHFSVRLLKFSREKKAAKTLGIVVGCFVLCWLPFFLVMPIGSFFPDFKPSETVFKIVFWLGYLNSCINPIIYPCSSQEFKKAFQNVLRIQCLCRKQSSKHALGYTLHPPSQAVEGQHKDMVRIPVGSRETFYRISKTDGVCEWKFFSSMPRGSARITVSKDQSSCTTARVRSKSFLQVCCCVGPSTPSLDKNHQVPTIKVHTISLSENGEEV

The target of the next experiment is Melanocortin receptor 4 (Homo sapiens, UniProt P32245).
Sequence of Melanocortin receptor 4 (P32245 whole entry): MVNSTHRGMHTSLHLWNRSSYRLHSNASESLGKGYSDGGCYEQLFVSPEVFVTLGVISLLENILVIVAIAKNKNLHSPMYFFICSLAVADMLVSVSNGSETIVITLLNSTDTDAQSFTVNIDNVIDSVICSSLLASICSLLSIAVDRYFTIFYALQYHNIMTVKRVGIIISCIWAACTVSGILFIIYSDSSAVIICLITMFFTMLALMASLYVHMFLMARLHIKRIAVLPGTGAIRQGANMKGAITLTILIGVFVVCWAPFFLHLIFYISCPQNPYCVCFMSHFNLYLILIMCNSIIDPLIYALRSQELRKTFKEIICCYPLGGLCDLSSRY
In experiment [6] the target is Growth hormone secretagogue receptor type 1 (Homo sapiens, UniProt Q92847).
Sequence of Growth hormone secretagogue receptor type 1 (Q92847 whole entry): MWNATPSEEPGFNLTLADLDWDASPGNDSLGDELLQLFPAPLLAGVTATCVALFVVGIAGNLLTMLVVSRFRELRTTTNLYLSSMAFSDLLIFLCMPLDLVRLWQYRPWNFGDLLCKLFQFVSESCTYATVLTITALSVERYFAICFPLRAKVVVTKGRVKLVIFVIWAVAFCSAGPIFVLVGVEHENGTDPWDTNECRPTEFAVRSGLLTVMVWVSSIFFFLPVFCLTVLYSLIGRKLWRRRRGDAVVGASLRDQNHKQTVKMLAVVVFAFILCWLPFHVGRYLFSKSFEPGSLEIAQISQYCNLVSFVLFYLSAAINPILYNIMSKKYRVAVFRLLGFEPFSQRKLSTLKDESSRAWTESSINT
For experiment [7], the target named is T2, 5-hydroxytryptamine receptor 2A. In kind it is functional, cell-based. The source holds these as a separate data set.
In experiment [8] the target is T5, 5-hydroxytryptamine receptor 1A (Homo sapiens, UniProt P08908).
T5 sequence (P08908 whole entry): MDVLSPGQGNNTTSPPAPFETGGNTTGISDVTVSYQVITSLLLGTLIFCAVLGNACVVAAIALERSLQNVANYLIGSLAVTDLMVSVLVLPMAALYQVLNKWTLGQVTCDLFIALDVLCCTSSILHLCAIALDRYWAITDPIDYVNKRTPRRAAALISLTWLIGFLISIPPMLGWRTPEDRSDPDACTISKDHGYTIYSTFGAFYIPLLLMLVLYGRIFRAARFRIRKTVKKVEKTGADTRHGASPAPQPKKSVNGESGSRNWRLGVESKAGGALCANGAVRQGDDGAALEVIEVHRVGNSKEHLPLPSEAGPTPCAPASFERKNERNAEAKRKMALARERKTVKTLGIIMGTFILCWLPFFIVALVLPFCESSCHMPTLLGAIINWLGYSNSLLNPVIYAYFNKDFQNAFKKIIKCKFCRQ
In kind it is functional, cell-based.

For experiment [9], the target named is T3, Cannabinoid receptor 1. The format is functional, cell-based.
A further experiment has as its target T6, Endothelin-1 receptor (Homo sapiens, UniProt P25101).
T6 sequence (P25101 whole entry): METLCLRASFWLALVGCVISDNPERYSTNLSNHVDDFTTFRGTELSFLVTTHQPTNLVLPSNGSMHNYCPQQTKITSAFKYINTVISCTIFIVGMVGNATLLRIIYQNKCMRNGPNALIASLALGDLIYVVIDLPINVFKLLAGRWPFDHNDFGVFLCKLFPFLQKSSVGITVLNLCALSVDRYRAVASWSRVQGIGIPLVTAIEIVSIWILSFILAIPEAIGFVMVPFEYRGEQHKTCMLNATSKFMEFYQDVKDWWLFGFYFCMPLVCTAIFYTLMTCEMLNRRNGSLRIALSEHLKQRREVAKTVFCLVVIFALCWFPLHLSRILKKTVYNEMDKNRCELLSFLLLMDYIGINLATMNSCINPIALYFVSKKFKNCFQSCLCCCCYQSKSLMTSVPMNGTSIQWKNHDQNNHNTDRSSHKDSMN

Experiment [10] deals with T3, Cannabinoid receptor 1. The format is functional, cell-based. The source holds these as a separate data set.
The target of experiment [11] is Beta-2 adrenergic receptor (Homo sapiens, UniProt P07550). The format is functional, cell-based.
Sequence of Beta-2 adrenergic receptor (P07550 whole entry): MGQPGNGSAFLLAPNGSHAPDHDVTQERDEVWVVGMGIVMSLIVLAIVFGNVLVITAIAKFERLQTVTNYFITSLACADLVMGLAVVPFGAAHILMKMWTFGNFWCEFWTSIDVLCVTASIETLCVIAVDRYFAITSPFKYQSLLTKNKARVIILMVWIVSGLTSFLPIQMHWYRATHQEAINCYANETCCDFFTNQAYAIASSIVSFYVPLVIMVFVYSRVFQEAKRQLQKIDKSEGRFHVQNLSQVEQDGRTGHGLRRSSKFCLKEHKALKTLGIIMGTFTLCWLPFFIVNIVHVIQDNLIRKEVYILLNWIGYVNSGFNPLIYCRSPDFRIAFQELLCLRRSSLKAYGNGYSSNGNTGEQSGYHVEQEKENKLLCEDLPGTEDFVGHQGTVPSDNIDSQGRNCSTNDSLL

The structures appear in SMILES notation.

These results are taken from ChEMBL document CHEMBL5291721, “A preclinical secondary pharmacology resource illuminates target-adverse drug reaction associations of marketed drugs” (Nat Commun, 2023).

The AC50 is the midpoint of the concentration-response curve, whichever way the signal moves.
Note: assay procedure not described here.

T3 sequence (P21554 whole entry): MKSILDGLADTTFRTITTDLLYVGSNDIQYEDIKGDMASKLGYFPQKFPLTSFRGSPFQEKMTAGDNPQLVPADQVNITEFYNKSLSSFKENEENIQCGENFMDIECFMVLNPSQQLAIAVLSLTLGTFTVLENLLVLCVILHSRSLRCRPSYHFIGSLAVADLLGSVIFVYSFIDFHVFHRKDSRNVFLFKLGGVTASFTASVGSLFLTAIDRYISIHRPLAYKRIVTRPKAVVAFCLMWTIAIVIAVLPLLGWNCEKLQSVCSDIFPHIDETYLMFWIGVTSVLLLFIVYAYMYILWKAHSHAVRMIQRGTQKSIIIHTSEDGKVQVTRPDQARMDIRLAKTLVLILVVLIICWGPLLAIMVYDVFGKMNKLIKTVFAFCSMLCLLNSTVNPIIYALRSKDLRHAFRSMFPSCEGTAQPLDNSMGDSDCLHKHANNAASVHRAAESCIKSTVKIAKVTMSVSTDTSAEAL
Sequence of Mu-type opioid receptor (P35372 whole entry): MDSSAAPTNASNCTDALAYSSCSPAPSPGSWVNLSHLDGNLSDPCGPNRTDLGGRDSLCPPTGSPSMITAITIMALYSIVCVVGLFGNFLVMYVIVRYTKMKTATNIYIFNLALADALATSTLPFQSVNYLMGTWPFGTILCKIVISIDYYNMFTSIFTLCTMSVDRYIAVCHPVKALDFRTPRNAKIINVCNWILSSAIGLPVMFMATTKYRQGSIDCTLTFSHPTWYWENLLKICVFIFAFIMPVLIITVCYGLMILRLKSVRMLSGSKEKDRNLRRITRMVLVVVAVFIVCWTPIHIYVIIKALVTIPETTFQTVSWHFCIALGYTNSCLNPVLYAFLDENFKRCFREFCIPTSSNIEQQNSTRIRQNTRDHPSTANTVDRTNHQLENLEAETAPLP

On to `COc1cc2c(cc1OC)C(CCc1ccc(Cl)cc1)N(C)CC2` (centres undefined) [METHOPHOLINE], for which the AC50 was over 30 µM in experiment [1]; over 30 µM on Mu-type opioid receptor; over 10 µM in experiment [2]; over 10 µM in experiment [3]; over 10 µM on Cannabinoid receptor 1 [4]; over 10 µM in [5]. For the same compound, the AC50 at Melanocortin receptor 4 is over 30 µM; in experiment [6], over 30 µM; in [7], over 10 µM; in experiment [8], over 10 µM.

Consider `C[N@+]1(CCF)[C@@H]2CC[C@H]1C[C@@H](OC(=O)C(O)(c1ccccc1)c1ccccc1)C2`, for which the AC50 (at Cannabinoid receptor 1 [9]; in experiment [1]; in experiment [2]; at Endothelin-1 receptor; in experiment [3]; on Cannabinoid receptor 1 [10]) was over 30 µM each time. Also, the AC50 in experiment [6] and in experiment [7] was over 30 µM each time.

On to `C=C[C@@]1(C)CC(=O)[C@]2(O)[C@@]3(C)[C@@H](O)CCC(C)(C)[C@@H]3[C@H](O)[C@H](OC(C)=O)[C@@]2(C)O1` [COLFORSIN], for which the AC50 (at Cannabinoid receptor 1 [9]; in experiment [1]; in experiment [2]; on Endothelin-1 receptor; in [3]; at Cannabinoid receptor 1 [10]) was over 30 µM throughout. For the same compound, the AC50 in [6] is over 30 µM; in experiment [7], 18 µM; in [8], 1.2 µM.

`CN(C(=O)c1c(O)c2ccccc2n(C)c1=O)c1ccccc1` [ROQUINIMEX]: the AC50 in [2] and in experiment [7] was over 30 µM each time.

Turning to `CCCCCCCCCCCCCCCCCCCCCC(=O)Nc1ccn([C@@H]2O[C@H](CO)[C@@H](O)[C@@H]2O)c(=O)n1` [ENOCITABINE], the AC50 (at Cannabinoid receptor 1 [9]; in experiment [1]; in experiment [2]; at Endothelin-1 receptor; in experiment [3]; on Cannabinoid receptor 1 [10]) was over 30 µM each time. Also, the AC50 in experiment [6] and in [7] was over 30 µM in each case.

As to `CC(=O)SC[C@@H](C)C(=O)N1CCC[C@H]1C(=O)N[C@@H](Cc1ccccc1)C(=O)O`, the half-maximal activity concentration (AC50) (on Cannabinoid receptor 1 [9]; in experiment [1]; in experiment [2]; on Endothelin-1 receptor; in experiment [3]; at Cannabinoid receptor 1 [10]) was over 30 µM throughout. Further, the AC50 in experiment [6] and in [7] was over 30 µM each time.

Turning to `Nc1cc(-c2ccncc2)c[nH]c1=O` [INAMRINONE], the AC50 is over 30 µM at Cannabinoid receptor 1 [9]; over 30 µM in experiment [11]; over 30 µM in experiment [1]; over 30 µM at Mu-type opioid receptor; over 10 µM in experiment [3]; over 10 µM on Cannabinoid receptor 1 [4]. Moreover, the AC50 in experiment [5] is over 10 µM; on Cannabinoid receptor 1 [10], over 30 µM; at Melanocortin receptor 4, over 30 µM; in experiment [6], over 30 µM; in experiment [8], over 10 µM.

For the compound `CCN(CC)CCN1C(=O)CN=C(c2ccccc2F)c2cc(Cl)ccc21` [FLURAZEPAM], the AC50 is over 30 µM in experiment [11]; over 30 µM in [1]; over 30 µM at Mu-type opioid receptor; over 10 µM in [3]; over 10 µM at Cannabinoid receptor 1 [4]; over 10 µM in experiment [5]. The results for the AC50 (on Melanocortin receptor 4; in experiment [6]) were over 30 µM and 22.9 µM, respectively.

Regarding `Cc1ncc2n1-c1ccc(Cl)cc1C(c1ccccc1F)=NC2` [MIDAZOLAM], the concentration at half-maximal activity (AC50) in [11] was over 30 µM; in experiment [1], over 30 µM; on Mu-type opioid receptor, over 30 µM; in experiment [3] it was over 10 µM; on Cannabinoid receptor 1 [4], over 10 µM; in [5], over 10 µM. The AC50 (on Melanocortin receptor 4; in [6]) was over 30 µM throughout.

Consider `COc1ccc2nc3cc(Cl)ccc3c(Nc3cc(CN4CCCC4)c(O)c(CN4CCCC4)c3)c2n1` [PYRONARIDINE], for which the AC50 (on Cannabinoid receptor 1 [9]; in [1]; in experiment [2]; at Endothelin-1 receptor; in experiment [3]; on Cannabinoid receptor 1 [10]) was over 30 µM in each case. The values for the AC50 in experiment [6] and in experiment [7] were 26 µM and over 30 µM, respectively.

As to `CC(=O)[C@@]1(O)CC[C@H]2[C@@H]3C=C(Cl)C4=CC(=O)[C@@H]5C[C@@H]5[C@]4(C)[C@H]3CC[C@@]21C` [CYPROTERONE], the AC50 in experiment [1] was over 10 µM; on Mu-type opioid receptor it was over 30 µM; in experiment [2], over 10 µM; in experiment [3], over 10 µM; at Cannabinoid receptor 1 [4], over 10 µM; in experiment [5], over 10 µM. Further, the AC50 (on Melanocortin receptor 4; in experiment [6]; in experiment [7]; in experiment [8]) was over 10 µM each time.

As for `COc1cc2ncnc(Nc3ccc(F)c(Cl)c3)c2cc1NC(=O)/C=C/CN1CCCCC1` [DACOMITINIB ANHYDROUS], the AC50 in experiment [2] and in [7] was over 30 µM in each case.

Take `C#CCOc1ccc(N)cc1C(=O)NCCCC` [PARSALMIDE]: the AC50 (at Cannabinoid receptor 1 [9]; in [1]; in experiment [2]; on Endothelin-1 receptor; in [3]; on Cannabinoid receptor 1 [10]) was over 30 µM throughout. Further, the figures for the AC50 in [6], in experiment [7] and in experiment [8] were over 30 µM, 30 µM and over 30 µM, respectively.

On to `CCOC(=O)O[C@]1(C(=O)OCCl)CC[C@H]2[C@@H]3CCC4=CC(=O)C=C[C@]4(C)[C@H]3[C@@H](O)C[C@@]21C` [LOTEPREDNOL ETABONATE], for which the AC50 (in experiment [1]; in experiment [2]; at Endothelin-1 receptor; in [3]; on Cannabinoid receptor 1 [4]; in [6]) was over 30 µM each time. Further, the AC50 in experiment [7] is over 30 µM.

As to `CC1=C(C)C(=O)C(C(CCCCCC(=O)O)c2ccccc2)=C(C)C1=O` (centres undefined) [SERATRODAST], the AC50 (in experiment [1]; in experiment [2]; in [3]; on Cannabinoid receptor 1 [4]; in [5]; at Melanocortin receptor 4) was over 30 µM in each case. The AC50 in [6] and in experiment [7] was over 30 µM in each case.

In the case of `C=C1/C(=C\C=C2/CCC[C@]3(C)[C@@H]([C@H](C)/C=C/[C@@H](O)C4CC4)CC[C@@H]23)C[C@@H](O)C[C@@H]1O` [CALCIPOTRIENE], the AC50 in experiment [1] was over 30 µM; in [2], over 30 µM; at Endothelin-1 receptor it was over 30 µM; in experiment [3], over 30 µM; at Cannabinoid receptor 1 [4] it was over 30 µM; in experiment [5] it was 29 µM. Also, the AC50 in experiment [6] and in [7] was over 30 µM each time.
